Like-named read-outs stand apart in the source and are kept apart here.
Assays:
Format in all cases: biochemical
[1] = target: T1, 5-LOX (Soybean lipoxygenase) (Glycine max, UniProt P08170); test: Lipoxygenase inhibitory activity assay
T1 construct: purchased Cayman Chemical Co. 760700
T1 sequence (P08170 1-839): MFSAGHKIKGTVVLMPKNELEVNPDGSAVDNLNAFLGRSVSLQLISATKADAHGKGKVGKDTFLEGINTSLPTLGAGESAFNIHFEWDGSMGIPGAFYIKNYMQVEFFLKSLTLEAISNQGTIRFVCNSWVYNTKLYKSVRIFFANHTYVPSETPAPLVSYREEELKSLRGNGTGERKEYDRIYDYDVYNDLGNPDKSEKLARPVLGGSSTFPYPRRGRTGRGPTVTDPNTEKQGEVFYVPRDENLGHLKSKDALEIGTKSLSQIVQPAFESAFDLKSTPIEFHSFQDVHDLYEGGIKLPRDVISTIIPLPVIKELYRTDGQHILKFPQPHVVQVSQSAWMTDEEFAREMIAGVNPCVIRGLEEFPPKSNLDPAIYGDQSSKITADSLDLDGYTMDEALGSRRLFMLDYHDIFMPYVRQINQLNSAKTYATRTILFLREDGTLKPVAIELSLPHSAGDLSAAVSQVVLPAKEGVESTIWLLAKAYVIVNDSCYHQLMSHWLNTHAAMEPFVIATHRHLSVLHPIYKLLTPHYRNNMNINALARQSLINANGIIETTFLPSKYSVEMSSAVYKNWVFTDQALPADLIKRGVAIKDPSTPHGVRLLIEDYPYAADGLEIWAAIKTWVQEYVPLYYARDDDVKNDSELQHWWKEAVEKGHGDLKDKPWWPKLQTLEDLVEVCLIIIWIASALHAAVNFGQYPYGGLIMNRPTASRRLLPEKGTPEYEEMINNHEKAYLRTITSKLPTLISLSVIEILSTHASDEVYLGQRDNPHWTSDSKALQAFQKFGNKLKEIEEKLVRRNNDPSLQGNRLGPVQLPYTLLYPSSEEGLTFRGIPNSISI
Method: 10 µL of the compound of each concentration was mixed with 90 µL 5-LOX (Soybean lipoxygenase in assay buffer) in the specified wells of the 96-well plate. Two wells containing assay buffer and AA acted as blanks whereas four wells, each carrying enzyme and AA, were positive controls. 10 µL AA was added to each test well and the plate was shaken for 5 min. Chromogen (100 µL) was added to each well and the plate was again shaken for 5 min. The absorbance of each well at 490 nm was recorded on microplate scanning spectrophotometer. As per the protocol given with the assay kit, the 5-LOX inhibitory activity for each compound at each concentration was determined using the mean of the two values (duplicate experiments) with deviation <5%.

COX-1 = target: T2, COX-1 (Ovis aries, UniProt P05979); test: COX-1 enzyme immunoassay (Cayman inhibitor screening kit)
T2 construct: purchased Cayman Chemical Co. 560131
T2 sequence (P05979 25-600): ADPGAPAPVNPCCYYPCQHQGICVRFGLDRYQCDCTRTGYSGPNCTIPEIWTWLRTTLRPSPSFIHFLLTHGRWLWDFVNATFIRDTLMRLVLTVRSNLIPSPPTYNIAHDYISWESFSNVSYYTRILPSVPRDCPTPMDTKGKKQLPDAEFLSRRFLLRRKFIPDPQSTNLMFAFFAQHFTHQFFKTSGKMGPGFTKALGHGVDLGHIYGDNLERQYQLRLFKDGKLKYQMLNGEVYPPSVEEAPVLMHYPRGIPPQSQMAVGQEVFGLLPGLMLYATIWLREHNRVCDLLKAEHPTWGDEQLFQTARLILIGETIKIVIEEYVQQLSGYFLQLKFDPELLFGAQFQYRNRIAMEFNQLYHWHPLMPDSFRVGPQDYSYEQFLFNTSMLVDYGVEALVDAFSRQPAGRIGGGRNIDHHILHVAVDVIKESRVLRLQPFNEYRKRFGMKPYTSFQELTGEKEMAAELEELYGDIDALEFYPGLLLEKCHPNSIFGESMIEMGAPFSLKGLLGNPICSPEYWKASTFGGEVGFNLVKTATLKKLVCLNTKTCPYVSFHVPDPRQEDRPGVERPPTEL
Method: (§1) Principally, the catalytic activity of COX-1/2 is slowed down in the presence of its inhibitor and quantitatively, it is inversely proportional to the amount of prostaglandin produced in the presence of inhibitor.
(§2) The enzyme inhibition screening assay kits for COX-1/2 and 5-LOX with item no. […] The 100% initial activity tubes for the two enzymes contained 10 µL heme and 10 µL of the enzyme in 160 µL reaction buffer. Then 10 µL inhibitor (compound of above mentioned concentrations) was added to the inhibitor tubes for the two enzymes and 10 µL of vehicle (DMSO) was added to 100% initial activity and background tubes. All the tubes were incubated for 10 min at 37 °C and the reaction was started by adding 10 µL arachidonic acid to all the reaction tubes. After incubation of the reaction vials for 2 min at 37 °C, the enzyme catalysis was stopped by adding 30 µL saturated stannous chloride solution to each test tube and solutions were kept at 0–4 °C. For EIA (enzyme immunoassay) procedure: the EIA buffers and assay specific reagents were prepared as written in the manual. In the COX dilutions, two test tubes labelled as BC1 and BC2 were taken to prepare background samples. Each tube contained 990 µL of EIA buffer and 10 µL of background COX-1 for BC1 and 10 µL of background COX-2 for BC2. The samples for 100% initial activity were diluted in three vials labelled IA1, IA2 and IA3 for each enzyme. IA1 contained 990 µL EIA buffer and 10 µL enzyme, IA2 has 950 µL buffer and 50 µL solution of IA1 (1:2000 dilution of original sample) and IA3 carried 500 µL of buffer and 500 µL of IA2 solution (1:4000 dilution of original sample). Each solution was thoroughly mixed. Solutions of IA2 and IA3 were used for the assaying. […] C2 contained 950 µL buffer and 50 µL solution of C1 (1:2000 dilution of original sample) and vial C3 was charged with 500 µL buffer and 500 µL solution from C2 (1: 4000 dilution of original sample). Only C2 and C3 were run in the assay. After all the reaction dilutions, these were then subjected to 96 wells plate. The wells were divided as: 2 blank wells, 2 NSB wells (non-specific binding), 3 B0 wells (maximum binding), one TA well (total activity), 16 wells for standards (S1–S8 in repeat), 2 BC1 and 2 BC2 wells. Compounds (inhibitors) were put in all the other wells. The sequence for the addition of reagents onto the plate was as per the protocol of the assay kit. […] For developing the plate; it was emptied and washed with wash buffer 5 times followed by the addition of 200 µL Ellman’s reagent to each well. 5 µL tracer was added to the TA well. Then the plate was covered and left for 60 mins for development in dark. After the respective time period the cover was removed and the plate was read at 420 nm. %B/Bo (i.e. % sample or maximum bound) value for standards S1-S8 and each sample was determined from the absorbance values obtained according to the calculation given in the protocol. The amount of prostaglandins formed during the enzymatic reaction was calculated from the values of %B/Bo for all the compounds at all concentrations with the help of the standard curve (plotted between %B/Bo of standards and raw data given in the protocol). Then the prostaglandin formed at each concentration of all the compounds and percentage inhibition values were calculated. The graph between percent inhibition of the enzyme and corresponding concentration of the compound provided IC50 values for the compounds.

COX-2 = target: T3, COX-2 (Homo sapiens, UniProt P35354); test: COX-2 enzyme immunoassay (Cayman inhibitor screening kit); design: purchased Cayman Chemical Co. 560131; conditions: for Selectivity index: SI = IC50 (COX-1)/ IC50 (COX-2); for IC50: enzyme immunoassay, average of three experiments
T3 sequence (P35354 18-604): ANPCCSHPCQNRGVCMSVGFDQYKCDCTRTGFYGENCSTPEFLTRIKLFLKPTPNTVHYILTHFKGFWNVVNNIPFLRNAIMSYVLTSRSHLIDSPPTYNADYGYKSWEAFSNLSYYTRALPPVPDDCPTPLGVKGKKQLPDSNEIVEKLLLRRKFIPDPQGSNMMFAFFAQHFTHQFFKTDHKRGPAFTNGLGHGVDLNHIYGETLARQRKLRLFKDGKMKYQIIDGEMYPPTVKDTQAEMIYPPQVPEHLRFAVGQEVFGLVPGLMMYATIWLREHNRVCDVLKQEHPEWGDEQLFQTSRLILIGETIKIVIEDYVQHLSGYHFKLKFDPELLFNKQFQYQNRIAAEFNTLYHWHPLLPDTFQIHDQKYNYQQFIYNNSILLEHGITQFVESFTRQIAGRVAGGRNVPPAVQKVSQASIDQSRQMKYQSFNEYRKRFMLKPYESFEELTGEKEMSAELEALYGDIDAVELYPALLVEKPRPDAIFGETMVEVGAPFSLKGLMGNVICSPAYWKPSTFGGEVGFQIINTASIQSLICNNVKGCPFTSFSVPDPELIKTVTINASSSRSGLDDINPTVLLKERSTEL
Method: as §1, §2

[2] = soybean lipoxygenase, duplicate, read-out: IC50 5-LOX
[3] = enzyme immunoassay, average of three experiments, read-out: IC50 COX-1

| Structure (SMILES) | IC50 [1] [µM] | IC50 (COX-1) [µM] | Selectivity index (COX-2) | IC50 (COX-2) [µM] | IC50 [1, 2] [µM] | IC50 (COX-1; [3]) [µM] |
| --- | --- | --- | --- | --- | --- | --- |
| O=C1NC(=O)C(=Cc2cn(C[C@@H](O)Cn3c4ccccc4c(=O)c4ccccc43)c3ccccc23)C(=O)N1 [(R)-3a] | 1 ± 0.1 | – | – | – | – | – |
| CN1C(=O)C(=Cc2cn(C[C@@H](O)Cn3c4ccccc4c(=O)c4ccccc43)c3ccccc23)C(=O)N(C)C1=O [(R)-3b] | 2 ± 0.18 | 1 ± 0.2 | 10 | 0.1 ± 0.07 | – | – |
| O=C1Nc2ccccc2C1=Cc1cn(C[C@@H](O)Cn2c3ccccc3c(=O)c3ccccc32)c2ccccc12 [(R)-3c] | – | – | 0.1 | 80 ± 7 | 0.6 ± 0.042 | 8 ± 0.38 |
| O=C1C(=Cc2cn(C[C@@H](O)Cn3c4ccccc4c(=O)c4ccccc43)c3ccccc23)c2ccccc2N1c1c(Cl)cccc1Cl [(R)-3d] | – | – | – | – | 0.1 ± 0.06 | > 10 |
| CC1=NN(c2cccc(Cl)c2)C(=O)C1=Cc1cn(C[C@@H](O)Cn2c3ccccc3c(=O)c3ccccc32)c2ccccc12 [(R)-3e] | – | – | – | – | 0.3 ± 0.13 | – |
| CN1C(=O)C(=Cc2cn(C[C@H](O)Cn3c4ccccc4c(=O)c4ccccc43)c3ccccc23)C(=O)N(C)C1=O [(S)-3b] | 0.09 ± 0.012 | 0.7 ± 0.05 | – | 0.3 ± 0.18 | – | – |
| O=C1C(=Cc2cn(C[C@H](O)Cn3c4ccccc4c(=O)c4ccccc43)c3ccccc23)c2ccccc2N1c1c(Cl)cccc1Cl [(S)-3d] | – | – | 10 | 6 ± 0.5 | 0.6 ± 0.039 | 60 ± 4.5 |
| CC1=NN(c2cccc(Cl)c2)C(=O)C1=Cc1cn(C[C@H](O)Cn2c3ccccc3c(=O)c3ccccc32)c2ccccc12 [(S)-3e] | – | – | – | – | 0.7 ± 0.038 | – |
| O=C1NC(=O)C(=Cc2cn(CCCCn3c4ccccc4c(=O)c4ccccc43)c3ccccc23)C(=O)N1 [Compound 4b] | 0.07 ± 0.022 | > 10 | – | 8 ± 0.42 | – | – |
| O=C1Nc2ccccc2C1=Cc1cn(CCCCn2c3ccccc3c(=O)c3ccccc32)c2ccccc12 [Compound 4d] | – | – | 1.33 | 3 ± 0.22 | 0.2 ± 0.09 | 4 ± 0.18 |
| CC1=NN(c2cccc(Cl)c2)C(=O)C1=Cc1cn(CCCn2c3ccccc3c(=O)c3ccccc32)c2ccccc12 [Compound 4e] | – | – | >1.11 | 9 ± 0.55 | 0.4 ± 0.015 | > 10 |
| CC1=NN(c2cccc(Cl)c2)C(=O)C1=Cc1cn(CCCCn2c3ccccc3c(=O)c3ccccc32)c2ccccc12 [Compound 4f] | – | – | – | 40 ± 3.8 | 0.1 ± 0.07 | – |
